Reference: publication PMC5554537 (Frontiers in Pharmacology, 2017)

Experiments:
[1] = tested on: CHO/POR cells; assay: Redox cycling: non-respiratory O2 consumption and H2O2 generation; type: cell-based; settings: rotenone-inhibited aerobic CHO/POR cells, cumulative addition
Method: (§1) The Chinese hamster ovary cell line 51D1.3 (herein called CHO) and a stable transfectant expressing a soluble form of human P450 oxidoreductase (51D1.3/sPOR, herein called CHO/POR) ([Gu et al., 2009]), were grown in spinner flasks in αMEM plus 5% fetal bovine serum. Late log phase cultures were harvested by centrifugation, resuspended at 5 × 10^5 cells/mL in phenol red-free high-glucose DMEM (Invitrogen) supplemented with 4 mM Glutamax-1, 1 mM sodium pyruvate and 5% FBS. Stirred cell suspensions (2 mL) were transferred to an OXYBOROS O2K oxygraph for simultaneous polarographic measurement of non-respiratory O2 consumption and fluorimetric measurement of H2O2 generation as previously ([Hunter et al., 2012]). Bovine liver superoxide dismutase (10 U), horseradish peroxidase (10 U), Amplex UltraRed (50 nmol) and rotenone (1 nmol), all from Molecular Probes Invitrogen (Eugene, OR), were injected and cumulative drug additions (from saline stock solutions) were made every ∼5 min once endogenous rates had stabilized. Signals were recorded every 2 s, and flux derivatives were estimated ∼2 min after each addition using a Savitzky–Golay smoothing filter (40 data point window) in DATLAB version 4.3.
(§2) Supplementary Figure 4. Time-dependent changes in oxy gen consu mption and H2O2 formation rates induced by SN30000 in rotenone-inhibited CHO/POR cell suspensions, monitored with an OXYBOROS O2K oxygraph. Conditions of the experiment were identical to Fig. 5 except that SN30000 was added as a single bolus to separate cell suspension, rather than by cu mulative addition. A: Representative traces for oxygen consu mption and H2O2 formation rates for a single culture when SN30000 was added to a final concentration of 600 µM, at 4 min. Peak rates were established within 2 min, followed by a decline to a new steady state at approximately 1/3rd of the maximu m rate. Cell viability was > 97% by try pan […]
(§3) killing. […]

[2] = tested on: SiHa cells; assay: Oxygen consumption rate, Seahorse XFe96 analyser; type: cell-based, human; settings: 200 µM, mitochondrial stress test
Method: (OCR) of the human cervical carcinoma cell line SiHa and a previously described (Guise et al., 2007) POR-overexpressing transfectant SiHa/POR, determined using a Seahorse XFe96 Analyser (Agilent). Cells were passaged in αMEM plus 5% FCS, with 1 µM puromycin to maintain POR expression in the SiHa/POR cell line. Cells were ty pically seeded at 4×10^4 cells/well in Seahorse 96 well plates (without puromycin) and ~ 18 hr later the medium was changed to Seahorse medium with 10 mM glucose and 2 mM glutamine (SMGG) adjusted to pH 7.35 (150 µl/well). Plates were degassed to remove CO2, and inhibitors were added serially using the Seahorse injectors (25 µl/injection) with rotenone (final concentration 0.5 µM) typically added at the start of the 30 min equilibration in the flux analyser. OCR was monitored for three 3 min periods following each drug addition. […]
injection 1 and at each subsequent injection to maintain concentrations at 200 µM continuously during the test. The control received equivalent injections of SMGG without drugs. In all cases (including controls), injection 2 added oligomycin to give 0.5 µM, injection 3 added carbonyl cyanide […] (FCCP) to 0.5 µM, and injection 4 added rotenone and antimy cin to 1 µM each. V alues are means and errors are standard deviations, for 6 replicate cultures. […]
suppressed by M14, both in the presence (injection 1) and absence (injection 4) of respiratory […]
presence or absence of 0.5 µM rotenone when SN30000 is added cumulatively to give the indicated concentrations. Values are means and SEM for 5 replicate cultures. The fall in OCR after transient stimulation at each addition of SN30000 is consistent with the pattern for CHO/POR cells in Supplementary Fig. 4A.
C: Concentration dependence of increases in OCR by SiHa/POR cells, measured at the first […]
effects noted above. Left panel: SN30000. Right panel: TPZ. Values are means and errors are […]

[3] = parameters: method as in Anderson et al., 2014; settings: ref Anderson et al., 2014; cited from earlier work
[4] = Mouse toxicity: MTD, survival and body weight loss after single i.p. doses; type: in vivo, NIH-III mice; settings: mouse, in vivo, ip, NIH-III mice; for MTD at 14 days: both sexes, single i.p. dose
Source text: (§4) Mouse toxicity SN30000 and metabolites M14 and M18: survival and body weight loss following single i.p. doses to NIH-III mice.
(§5) Cmpd Dose Body weight nadir Body weight nadir
(§6) (µmol/kg) Survivala Survivala
(§7) Day Weight loss (%)b Day Weight loss (%)b […]
(§8) a Survival reported as a fraction of total nu mber of animal treated at a giv en dose, with an observation time of 14 days. Deaths were predominantly due to humane ter mination because of persistent clinical signs or body weight loss > 15% of pretreatment values. b Body weig ht loss at nadir, relative to pre-treatment values. Values are mean and errors are […]
(§9) c Data from Gu et al., 2014 d Mouse died <24 hr after dosing.

[5] = tested on: NIH-III mice; assay: as above; type: in vivo; settings: for Survival: 14 days
Source text: as §4, §5, §6, §7, §8, §9

[6] = Redox cycling: non-respiratory O2 consumption and H2O2 generation; type: cell-based; settings: Chinese hamster; CHO/POR cells, 600 µM single bolus; read-out: Cell viability by trypan blue at end of exposure
Method: as §1, §2, §3

[7] = tested on: HT29 tumor cells; parameters: method as in Hicks et al., 2010; settings: stirred suspensions of HT29 tumor cells; ref Hicks et al., 2010; cited from earlier work

Structure (SMILES)	Non-respiratory O2 consumption and H2O2 generation (redox cycling) [1]	Effect on oxygen consumption rate (OCR) [2]	One-electron reduction potential, lower than SN30000 by [3]	MTD at 14 days [4]	MTD at 14 days ([4]; equivalent to 562 μmol/kg)	MTD at 2 weeks ([4]; as stated for the temperature study (Figure 4))	Body weight nadir, Day ([5]; female, 562 µmol/kg i.p.)	Body weight nadir, Weight loss ([5]; female, 562 µmol/kg i.p.)	Survival ([5]; female, 562 µmol/kg i.p.)	Survival ([5]; female, 750 µmol/kg i.p.)	Body weight nadir, Day ([5]; male, 562 µmol/kg i.p.)	Body weight nadir, Weight loss ([5]; male, 562 µmol/kg i.p.)	Survival ([5]; male, 562 µmol/kg i.p.)	Survival ([5]; male, 750 µmol/kg i.p.)	Body weight nadir, Day ([5]; male, 1000 µmol/kg i.p.)	Body weight nadir, Weight loss ([5]; male, 1000 µmol/kg i.p.)	Survival ([5]; male, 1000 µmol/kg i.p.)	viability at 600 µM [6]	O2 in solution for 50% inhibition of cytotoxicity [7]
[O-][n+]1nc(CCCN2CCOCC2)nc2cc3c(cc21)CCC3 [M14]	much lower rates than for SN30000	suppressed	70 mV	562 µmol/kg	177 mg/kg	135 mg/kg	3	2.6 ± 0.4%	3/3	0/1	1	0.7 ± 0.5%	3/3	0/2	1	2.0%	1/1	–	–
O=C(O)CCc1nc2cc3c(cc2[n+]([O-])n1)CCC3 [M18]	–	–	–	–	–	–	–	No decrease in body weight	3/3	–	–	–	–	–	–	–	–	–	–
[O-][n+]1nc(CCCN2CCOCC2)[n+]([O-])c2cc3c(cc21)CCC3 [SN30000, 3-(3-Morpholinopropyl)-7,8-dihydro-6H-indeno[5,6-e][1,2,4]triazine 1,4-dioxide]	strongly stimulated O2 consumption and H2O2 formation	increased	–	562 µmol/kg	186 mg/kg	–	–	–	–	–	–	–	–	–	–	–	–	> 97%	1.14 ± 0.24 µM
